According to ChEMBL document CHEMBL4007467, “Effects of 6-paradol, an unsaturated ketone from gingers, on cytochrome P450-mediated drug metabolism” (Bioorg Med Chem Lett, 2017):

What was measured:
Format in all cases: ADME
Parameters in all cases: scale not given: the % may be the effect or the level left
CYP3A4 [1] = molecular target: T1, CYP3A4 (Homo sapiens, UniProt P08684); assay: Inhibition of CYP3A4 in human liver microsomes assessed as enzyme-mediated metabolite formation at 3 uM using midazolam as substrate preincubated for 20 mins followed by substrate addition measured after 30 mins in presence of NADPH by LC-MS/MS analysis relative to control; conditions: probe midazolam, read-out: Activity
CYP1A2 [2] = molecular target: T2, CYP1A2 (Homo sapiens, UniProt P05177); assay: Inhibition of CYP1A2 in human liver microsomes assessed as enzyme-mediated metabolite formation at 3 uM using phenacetin as substrate preincubated for 20 mins followed by substrate addition measured after 30 mins in presence of NADPH by LC-MS/MS analysis relative to control; conditions: probe phenacetin, read-out: Activity
T2 sequence (P05177 whole entry): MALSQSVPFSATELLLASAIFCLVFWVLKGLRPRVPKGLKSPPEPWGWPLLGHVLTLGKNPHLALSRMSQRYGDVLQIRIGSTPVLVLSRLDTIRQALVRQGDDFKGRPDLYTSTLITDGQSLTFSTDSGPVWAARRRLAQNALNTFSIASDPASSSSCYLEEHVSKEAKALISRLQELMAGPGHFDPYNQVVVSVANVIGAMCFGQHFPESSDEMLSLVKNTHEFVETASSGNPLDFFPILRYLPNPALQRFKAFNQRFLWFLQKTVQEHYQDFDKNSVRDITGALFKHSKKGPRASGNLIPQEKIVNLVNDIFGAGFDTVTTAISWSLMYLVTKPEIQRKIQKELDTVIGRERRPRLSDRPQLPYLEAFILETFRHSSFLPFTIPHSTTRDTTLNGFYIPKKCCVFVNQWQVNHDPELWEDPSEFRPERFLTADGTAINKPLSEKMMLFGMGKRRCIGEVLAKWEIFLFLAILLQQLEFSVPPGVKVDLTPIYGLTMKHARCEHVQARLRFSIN

CYP2C9 [3] = molecular target: T3, CYP2C9 (Homo sapiens, UniProt P11712); assay: Inhibition of CYP2C9 in human liver microsomes assessed as enzyme-mediated metabolite formation at 1 uM using diclofenac as substrate preincubated for 20 mins followed by substrate addition measured after 30 mins in presence of NADPH by LC-MS/MS analysis relative to control; conditions: probe diclofenac, read-out: Activity
CYP2A6 = molecular target: T4, CYP2A6 (Homo sapiens, UniProt P11509); assay: Inhibition of CYP2A6 in human liver microsomes assessed as enzyme-mediated metabolite formation at 1 uM using coumarin as substrate preincubated for 20 mins followed by substrate addition measured after 30 mins in presence of NADPH by LC-MS/MS analysis relative to control; conditions: probe coumarin, read-out: Activity
T4 sequence (P11509 whole entry): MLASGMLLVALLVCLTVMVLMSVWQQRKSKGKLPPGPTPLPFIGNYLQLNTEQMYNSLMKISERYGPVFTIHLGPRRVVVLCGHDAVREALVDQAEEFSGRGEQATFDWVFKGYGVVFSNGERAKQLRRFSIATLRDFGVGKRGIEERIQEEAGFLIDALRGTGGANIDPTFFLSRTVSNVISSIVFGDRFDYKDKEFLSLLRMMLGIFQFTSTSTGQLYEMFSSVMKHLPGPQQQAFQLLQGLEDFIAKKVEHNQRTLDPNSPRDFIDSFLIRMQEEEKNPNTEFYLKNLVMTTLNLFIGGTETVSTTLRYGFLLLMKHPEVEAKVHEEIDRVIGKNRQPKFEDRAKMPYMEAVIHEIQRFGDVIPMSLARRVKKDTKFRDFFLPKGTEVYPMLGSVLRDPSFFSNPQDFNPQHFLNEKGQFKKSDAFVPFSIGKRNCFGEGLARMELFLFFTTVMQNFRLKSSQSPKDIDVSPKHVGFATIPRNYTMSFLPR

CYP3A4 [4] = molecular target: T1, CYP3A4; assay: Inhibition of CYP3A4 in human liver microsomes assessed as enzyme-mediated metabolite formation at 0.3 uM using testosterone as substrate preincubated for 20 mins followed by substrate addition measured after 30 mins in presence of NADPH by LC-MS/MS analysis relative to control; conditions: probe testosterone, read-out: Activity
CYP2C19 = CYP2C19 (Homo sapiens, UniProt P33261); assay: Inhibition of CYP2C19 in human liver microsomes assessed as enzyme-mediated metabolite formation at 0.1 uM using (S)-mephenytoin as substrate preincubated for 20 mins followed by substrate addition measured after 30 mins in presence of NADPH by LC-MS/MS analysis relative to control; conditions: probe (S)-mephenytoin, read-out: Activity
CYP2B6 = molecular target: T5, CYP2B6 (Homo sapiens, UniProt P20813); assay: Inhibition of CYP2B6 in human liver microsomes assessed as enzyme-mediated metabolite formation at 10 uM using bupropion as substrate incubated for 5 mins followed by NADPH addition measured after 30 mins by LC-MS/MS analysis relative to control; conditions: probe bupropion, read-out: Activity
T5 sequence (P20813 whole entry): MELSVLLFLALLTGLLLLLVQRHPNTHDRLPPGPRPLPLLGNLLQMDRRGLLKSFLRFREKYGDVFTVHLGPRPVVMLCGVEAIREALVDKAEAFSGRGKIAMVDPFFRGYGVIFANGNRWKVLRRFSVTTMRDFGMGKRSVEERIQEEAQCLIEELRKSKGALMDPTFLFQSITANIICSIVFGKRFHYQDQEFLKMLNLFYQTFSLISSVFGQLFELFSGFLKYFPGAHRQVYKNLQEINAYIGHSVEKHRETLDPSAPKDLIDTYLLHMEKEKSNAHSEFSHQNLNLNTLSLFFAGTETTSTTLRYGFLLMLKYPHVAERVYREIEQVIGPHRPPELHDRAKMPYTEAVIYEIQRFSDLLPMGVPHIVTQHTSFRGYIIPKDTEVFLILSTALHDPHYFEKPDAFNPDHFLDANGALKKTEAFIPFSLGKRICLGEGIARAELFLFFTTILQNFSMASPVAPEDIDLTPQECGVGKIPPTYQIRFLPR

CYP3A4 [5] = molecular target: T1, CYP3A4; assay: Inhibition of CYP3A4 in human liver microsomes assessed as enzyme-mediated metabolite formation at 30 uM using midazolam as substrate incubated for 5 mins followed by NADPH addition measured after 30 mins by LC-MS/MS analysis relative to control; conditions: probe midazolam, read-out: Activity
CYP2C9 [6] = molecular target: T3, CYP2C9; assay: Inhibition of CYP2C9 in human liver microsomes assessed as enzyme-mediated metabolite formation at 0.3 uM using diclofenac as substrate preincubated for 20 mins followed by substrate addition measured after 30 mins in presence of NADPH by LC-MS/MS analysis relative to control; conditions: probe diclofenac, read-out: Activity
CYP1A2 [7] = molecular target: T2, CYP1A2; assay: Inhibition of CYP1A2 in human liver microsomes assessed as enzyme-mediated metabolite formation at 0.3 uM using phenacetin as substrate incubated for 5 mins followed by NADPH addition measured after 30 mins by LC-MS/MS analysis relative to control; conditions: probe phenacetin, read-out: Activity
CYP3A4 [8] = molecular target: T1, CYP3A4; assay: Inhibition of CYP3A4 in human liver microsomes assessed as enzyme-mediated metabolite formation at 30 uM using testosterone as substrate incubated for 5 mins followed by NADPH addition measured after 30 mins by LC-MS/MS analysis relative to control; conditions: probe testosterone, read-out: Activity
CYP2D6 = CYP2D6 (Homo sapiens, UniProt P10635); assay: Inhibition of CYP2D6 in human liver microsomes assessed as enzyme-mediated metabolite formation at 3 uM using dextromethorphan as substrate preincubated for 20 mins followed by substrate addition measured after 30 mins in presence of NADPH by LC-MS/MS analysis relative to control; conditions: probe dextromethorphan, read-out: Activity
Sequence of CYP2D6 (P10635 whole entry): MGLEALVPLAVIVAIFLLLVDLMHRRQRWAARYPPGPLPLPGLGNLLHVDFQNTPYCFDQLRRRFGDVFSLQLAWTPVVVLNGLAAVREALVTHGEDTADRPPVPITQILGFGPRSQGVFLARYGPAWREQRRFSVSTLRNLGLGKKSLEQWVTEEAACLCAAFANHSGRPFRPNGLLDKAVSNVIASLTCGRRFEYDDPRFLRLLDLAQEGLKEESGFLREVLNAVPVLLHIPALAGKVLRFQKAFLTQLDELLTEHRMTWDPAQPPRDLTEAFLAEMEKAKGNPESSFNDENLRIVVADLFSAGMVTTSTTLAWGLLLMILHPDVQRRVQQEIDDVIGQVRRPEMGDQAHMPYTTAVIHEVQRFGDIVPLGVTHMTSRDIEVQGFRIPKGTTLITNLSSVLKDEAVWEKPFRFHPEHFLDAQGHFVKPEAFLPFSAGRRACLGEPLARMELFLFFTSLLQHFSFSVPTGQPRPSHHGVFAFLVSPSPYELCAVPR

T1 sequence (P08684 whole entry): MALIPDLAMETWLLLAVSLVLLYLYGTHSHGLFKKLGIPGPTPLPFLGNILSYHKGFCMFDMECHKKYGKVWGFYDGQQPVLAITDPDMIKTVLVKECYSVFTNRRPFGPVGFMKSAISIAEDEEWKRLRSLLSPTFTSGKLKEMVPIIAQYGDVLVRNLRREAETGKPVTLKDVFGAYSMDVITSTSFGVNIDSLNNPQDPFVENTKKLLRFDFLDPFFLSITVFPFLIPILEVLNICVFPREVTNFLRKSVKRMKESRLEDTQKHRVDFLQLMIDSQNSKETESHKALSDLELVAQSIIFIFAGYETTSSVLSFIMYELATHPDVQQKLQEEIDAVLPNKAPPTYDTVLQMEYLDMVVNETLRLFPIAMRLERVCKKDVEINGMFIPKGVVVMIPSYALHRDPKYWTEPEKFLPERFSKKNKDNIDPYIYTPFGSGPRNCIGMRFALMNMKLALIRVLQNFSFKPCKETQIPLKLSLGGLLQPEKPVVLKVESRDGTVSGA
T3 sequence (P11712 whole entry): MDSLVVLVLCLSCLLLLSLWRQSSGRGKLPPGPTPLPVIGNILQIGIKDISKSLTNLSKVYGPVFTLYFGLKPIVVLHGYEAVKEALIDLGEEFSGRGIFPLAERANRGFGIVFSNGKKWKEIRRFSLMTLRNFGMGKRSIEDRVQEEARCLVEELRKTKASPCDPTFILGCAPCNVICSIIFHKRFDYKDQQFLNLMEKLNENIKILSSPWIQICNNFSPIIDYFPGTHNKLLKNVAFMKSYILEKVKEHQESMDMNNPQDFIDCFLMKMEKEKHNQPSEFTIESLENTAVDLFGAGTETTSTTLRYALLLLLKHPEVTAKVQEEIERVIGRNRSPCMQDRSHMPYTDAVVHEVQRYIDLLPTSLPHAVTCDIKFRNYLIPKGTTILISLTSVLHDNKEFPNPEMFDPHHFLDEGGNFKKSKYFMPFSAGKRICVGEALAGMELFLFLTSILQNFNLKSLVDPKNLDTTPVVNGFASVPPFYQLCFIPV
Sequence of CYP2C19 (P33261 whole entry): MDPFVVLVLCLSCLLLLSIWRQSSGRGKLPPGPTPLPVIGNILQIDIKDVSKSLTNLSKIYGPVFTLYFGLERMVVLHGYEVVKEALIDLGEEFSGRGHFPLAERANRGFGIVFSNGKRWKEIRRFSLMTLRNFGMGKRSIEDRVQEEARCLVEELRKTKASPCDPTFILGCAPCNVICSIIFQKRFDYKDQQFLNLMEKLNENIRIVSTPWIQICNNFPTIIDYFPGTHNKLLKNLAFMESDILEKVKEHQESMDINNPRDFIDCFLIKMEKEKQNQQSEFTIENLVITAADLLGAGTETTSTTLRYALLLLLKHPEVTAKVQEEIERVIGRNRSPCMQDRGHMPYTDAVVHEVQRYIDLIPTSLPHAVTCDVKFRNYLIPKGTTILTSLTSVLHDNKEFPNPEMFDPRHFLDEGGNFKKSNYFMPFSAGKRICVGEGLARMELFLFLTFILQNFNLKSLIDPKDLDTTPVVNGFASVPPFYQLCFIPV

activity at 0.5 h, 3 µM (CYP3A4 [1]): 103%
activity at 0.5 h, 3 µM (CYP1A2 [2]): 76.5%
activity at 0.5 h, 1 µM (CYP2C9 [3]): 81.1%
activity at 0.5 h, 1 µM (CYP2A6): 102%
activity at 0.5 h, 0.3 µM (CYP3A4 [4]): 87.4%
activity at 0.5 h, 0.1 µM (CYP2C19): 102%
activity at 0.5 h, 10 µM (CYP2B6): 53.9%
activity at 0.5 h, 30 µM (CYP3A4 [5]): 72%
activity at 0.5 h, 0.3 µM (CYP2C9 [6]): 72.6%
activity at 0.5 h, 0.3 µM (CYP1A2 [7]): 97.8%
activity at 0.5 h, 30 µM (CYP3A4 [8]): 48.6%
activity at 0.5 h, 3 µM (CYP2D6): 103%
SMILES: CCCCCCCC(=O)CCc1ccc(O)c(OC)c1
